We go through three compounds from patent US20060235076A1, “Medicinal composition for treating infection with drug-resistant staphylococcus aureus” (priority 2003, published 2006).

For the assay, the system named is MRSA. Put plainly: Potentiating effect of galloyl quinic acid derivatives for the antibacterial activity of oxacillin (agar plate dilution method, MIC). It counts as cell-based, Staphylococcus aureus. As for the experimental part:
According to the agar plate dilution method defined by Japan Society of Chemotherapy, MIC (Minimum inhibitory concentration) was determined. CAMHA was prepared by adding 50 mg/l of Ca-ion, 25 mg/l of Mg-ion, and 2% of NaCl to Mueller-Hinton II Agar (MHA), and it was used as a medium for use in the measurement of sensitivity. The bacterial liquid was incubated at 37° C. overnight and diluted to 10^6 CFU/ml with saline.
It was confirmed that the known substances shown below were contained in “Tara” and their MICs were determined as described in example 2 with respect to the effects of the combination use with oxacillin

“Also recorded” adds a separate entry of the source.

For `O=C(OC1CC(O)(C(=O)O)CC(OC(=O)c2cc(O)c(O)c(O)c2)C1OC(=O)c1cc(O)c(O)c(O)c1)c1cc(O)c(O)c(O)c1` (centres unmarked) [compound 3], the “Oxacillin MIC” value is under 0.5 µg/mL (ATCC 6538, with 12.5 μg/ml of compound); under 0.5 µg/mL (ATCC 6538, with 25 μg/ml of compound); under 0.5 µg/mL (ATCC 6538, with 50 μg/ml of compound); 128 µg/mL (MRSA 1, with 12.5 μg/ml of compound); 32 µg/mL (MRSA 1, with 25 μg/ml of compound); 64 µg/mL (MRSA 1, with 50 μg/ml of compound). Also, the “Oxacillin MIC” value (MRSA 2, with 12.5 μg/ml of compound) was 2 µg/mL; the “Oxacillin MIC” value (MRSA 2, with 25 μg/ml of compound) was under 0.5 µg/mL; the “Oxacillin MIC” value (MRSA 2, with 50 μg/ml of compound) was under 0.5 µg/mL; the “Oxacillin MIC” value (MRSA 3, with 12.5 μg/ml of compound) was 4 µg/mL; the “Oxacillin MIC” value (MRSA 3, with 25 μg/ml of compound) is under 0.5 µg/mL; the “Oxacillin MIC” value (MRSA 3, with 50 μg/ml of compound) was 1 µg/mL. Further, the “Oxacillin MIC” value is, setting by setting: (MRSA 4, with 12.5 μg/ml of compound) 32 µg/mL; (MRSA 4, with 25 μg/ml of compound) 4 µg/mL; (MRSA 4, with 50 μg/ml of compound) 2 µg/mL; (MRSA 5, with 12.5 μg/ml of compound) 64 µg/mL; (MRSA 5, with 25 μg/ml of compound) 8 µg/mL; (MRSA 5, with 50 μg/ml of compound) 8 µg/mL. The “Oxacillin MIC” value was 4 µg/mL (MRSA 6, with 12.5 μg/ml of compound); 2 µg/mL (MRSA 6, with 25 μg/ml of compound); 4 µg/mL (MRSA 6, with 50 μg/ml of compound); 16 µg/mL (MRSA 7, with 12.5 μg/ml of compound); 4 µg/mL (MRSA 7, with 25 μg/ml of compound); 2 µg/mL (MRSA 7, with 50 μg/ml of compound). Also, the “Oxacillin MIC” value turned out to be 8 µg/mL (MRSA 8, with 12.5 μg/ml of compound); 4 µg/mL (MRSA 8, with 25 μg/ml of compound); 8 µg/mL (MRSA 8, with 50 μg/ml of compound); 8 µg/mL (MRSA 9, with 12.5 μg/ml of compound); 2 µg/mL (MRSA 9, with 25 μg/ml of compound); 2 µg/mL (MRSA 9, with 50 μg/ml of compound). For the same compound, the “Oxacillin MIC” value by setting is: (MRSA 10, with 12.5 μg/ml of compound) 4 µg/mL; (MRSA 10, with 25 μg/ml of compound) 2 µg/mL; (MRSA 10, with 50 μg/ml of compound) 4 µg/mL; (MRSA 12, with 12.5 μg/ml of compound) 8 µg/mL; (MRSA 12, with 25 μg/ml of compound) 4 µg/mL; (MRSA 12, with 50 μg/ml of compound) 4 µg/mL. In addition, the “Oxacillin MIC” value reads like this: (MRSA 16, with 12.5 μg/ml of compound) 32 µg/mL; (MRSA 16, with 25 μg/ml of compound) 8 µg/mL; (MRSA 16, with 50 μg/ml of compound) 8 µg/mL; (MRSA 17, with 12.5 μg/ml of compound) 4 µg/mL; (MRSA 17, with 25 μg/ml of compound) 8 µg/mL; (MRSA 17, with 50 μg/ml of compound) 4 µg/mL. The “Oxacillin MIC” value runs as follows: (MRSA 18, with 12.5 μg/ml of compound) 32 µg/mL; (MRSA 18, with 25 μg/ml of compound) 4 µg/mL; (MRSA 18, with 50 μg/ml of compound) 4 µg/mL; (MRSA 20, with 12.5 μg/ml of compound) under 0.5 µg/mL; (MRSA 20, with 25 μg/ml of compound) under 0.5 µg/mL; (MRSA 20, with 50 μg/ml of compound) under 0.5 µg/mL. Also, the “Oxacillin MIC” value by setting is: (MRSA 21, with 12.5 μg/ml of compound) 1 µg/mL; (MRSA 21, with 25 μg/ml of compound) under 0.5 µg/mL; (MRSA 21, with 50 μg/ml of compound) under 0.5 µg/mL; (MRSA 22, with 12.5 μg/ml of compound) 1 µg/mL; (MRSA 22, with 25 μg/ml of compound) under 0.5 µg/mL; (MRSA 22, with 50 μg/ml of compound) 1 µg/mL. Also, the “Oxacillin MIC” value was 8 µg/mL (MRSA COL, with 12.5 μg/ml of compound); 4 µg/mL (MRSA COL, with 25 μg/ml of compound); 4 µg/mL (MRSA COL, with 50 μg/ml of compound); under 0.5 µg/mL (MSSA 1003, with 12.5 μg/ml of compound); under 0.5 µg/mL (MSSA 1003, with 25 μg/ml of compound); under 0.5 µg/mL (MSSA 1003, with 50 μg/ml of compound). Moreover, the “Oxacillin MIC” value by setting is: (MSSA 1010, with 12.5 μg/ml of compound) under 0.5 µg/mL; (MSSA 1010, with 25 μg/ml of compound) under 0.5 µg/mL; (MSSA 1010, with 50 μg/ml of compound) under 0.5 µg/mL; (MSSA 1032, with 12.5 μg/ml of compound) under 0.5 µg/mL; (MSSA 1032, with 25 μg/ml of compound) under 0.5 µg/mL; (MSSA 1032, with 50 μg/ml of compound) under 0.5 µg/mL. Moreover, the “Oxacillin MIC” value was under 0.5 µg/mL (RN4220, with 12.5 μg/ml of compound); under 0.5 µg/mL (RN4220, with 25 μg/ml of compound); under 0.5 µg/mL (RN4220, with 50 μg/ml of compound).

In the case of `O=C(OC1CC(O)(C(=O)O)CC(OC(=O)c2cc(O)c(O)c(O)c2)C1OC(=O)c1cc(O)c(O)c(O)c1)c1cc(O)c(O)c(O)c1` (centres unmarked) [3,4,5-trigalloylquinic acid], the “effect of combination use with oxacillin (words)” value is reported as “excellent; also recorded: most potent”.

Consider `COC(=O)C1(O)CC(OC(=O)c2cc(O)c(O)c(O)c2)C(OC(=O)c2cc(O)c(O)c(O)c2)C(OC(=O)c2cc(O)c(O)c(O)c2)C1` (centres unmarked) [Methyl 3,4,5-trigalloylquinate, methyl 3,4,5-trigalloylquinate], for which the “effect of combination use with oxacillin (words)” value is listed as “weak effects”.
